One assay addresses T1, CDK7 (Homo sapiens, UniProt P50613).
T1 construct: purchased Life Technologies (Grand Island, N.Y.), Adapta kinase assay service
The experiment in a line: CDK7 kinase activity, Adapta kinase assay (Life Technologies). Note: concentrations from 10 µM down to 0.514 nM. Conditions: read-out: CDK7 Inhibition (IC50). In kind it is biochemical. On the procedure:
Compounds of the invention were assayed for CDK7 activity at Life Technologies (Grand Island, N.Y.) using their commercially available Adapta® kinase assay services. […] Details of this assay, including substrates used, are available on the Life Technologies web site (http://www.lifetechnologies.com/us/en/home/life-science/drug-discovery/target-and-lead-identification-and-validation/kinasebiology/kinase-activity-assays.html).

The subject of a further assay is A673 cells. The experiment in a line: Inhibition of A673 cell proliferation (CyQUANT). The note with it: Homo sapiens, read-out: A673 IC50. The format is cell-based. The procedure: Representative compounds of the invention were tested at different concentrations (from 4 μM to 126.4 pM; 0.5 log serial dilutions) for their ability to inhibit the proliferation of A673 cells. Known CDK inhibitors flavopiridol and triptolide were used as positive controls. Cells were grown in Dulbecco's Modified Eagle's Medium, +10% FBS+1 mM Sodium Pyruvate. The cells were cultured at 37° C. in a humidified chamber in the presence of 5% CO2. Proliferation assays were conducted over a 72 hour time period. CyQUANT® (Life Technologies, Chicago, Ill. USA) was used to assess the anti-proliferative effects of the compounds following manufacturer's directions and utilizing the reagents supplied with the CyQUANT® kit.

Where [1] appears, read: A673 cells, 72 hour proliferation, CyQUANT, 4 μM to 126.4 pM, 0.5 log serial dilutions.

Like-named read-outs stand apart in the source and are kept apart here. Some results are limits rather than exact numbers.

Here are results for 13 molecules from patent US10336760B2, “Inhibitors of cyclin-dependent kinase 7 (CDK7)” (SYROS PHARMACEUTICALS, INC., priority 2014, dated 2019).

T1 sequence (P50613 whole entry): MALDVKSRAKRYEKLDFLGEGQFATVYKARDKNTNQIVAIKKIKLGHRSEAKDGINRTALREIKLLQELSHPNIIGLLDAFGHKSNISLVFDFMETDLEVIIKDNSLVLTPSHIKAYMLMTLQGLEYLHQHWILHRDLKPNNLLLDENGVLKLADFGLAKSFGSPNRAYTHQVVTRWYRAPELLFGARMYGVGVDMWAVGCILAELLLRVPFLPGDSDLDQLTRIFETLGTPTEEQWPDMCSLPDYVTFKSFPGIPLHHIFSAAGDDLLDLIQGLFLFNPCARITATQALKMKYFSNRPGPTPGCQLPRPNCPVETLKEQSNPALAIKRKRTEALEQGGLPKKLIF
T1 sequence (P51946 whole entry partner): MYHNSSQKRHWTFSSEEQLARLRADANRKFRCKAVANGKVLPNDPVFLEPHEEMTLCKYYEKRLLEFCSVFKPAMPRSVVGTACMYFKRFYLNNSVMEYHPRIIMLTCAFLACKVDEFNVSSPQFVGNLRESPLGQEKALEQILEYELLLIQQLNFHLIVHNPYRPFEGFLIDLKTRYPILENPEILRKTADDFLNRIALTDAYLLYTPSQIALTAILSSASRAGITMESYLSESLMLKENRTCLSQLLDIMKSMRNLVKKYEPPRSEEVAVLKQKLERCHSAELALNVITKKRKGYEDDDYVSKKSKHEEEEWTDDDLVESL
T1 sequence (P51948 whole entry partner): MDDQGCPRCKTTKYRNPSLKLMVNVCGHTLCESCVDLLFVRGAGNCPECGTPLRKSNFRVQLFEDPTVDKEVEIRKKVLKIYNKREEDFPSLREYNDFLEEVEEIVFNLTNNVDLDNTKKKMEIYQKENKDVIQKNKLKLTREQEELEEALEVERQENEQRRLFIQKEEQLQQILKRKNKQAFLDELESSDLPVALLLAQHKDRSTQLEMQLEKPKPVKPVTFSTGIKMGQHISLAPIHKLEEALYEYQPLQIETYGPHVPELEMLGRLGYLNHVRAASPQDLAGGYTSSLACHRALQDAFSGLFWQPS

Usually IC50 stands for the point on the concentration scale where inhibition reaches its midpoint. As for `CC(C)c1cnn2c(NCc3ccccc3NC(=O)c3ccc(NC(=O)/C=C/CN(C)C)cc3)nc(OC3CCN(C)CC3)nc12` [Compound 103, (E)-4-(4-(dimethylamino)but-2-enamido)-N-(2-(((8-isopropyl-2-((1-methylpiperidin-4-yl)oxy)pyrazolo[1,5-a][1,3,5]triazin-4-yl)amino)methyl)phenyl)benzamide], the IC50 is 100 to 1000 nM at CDK7 and 500 to 5000 nM in the assay on A673 cells (setting [1]).

In the case of `CC(C)c1cnn2c(NCc3ccccc3N3CCN(C(=O)/C=C/CN(C)C)CC3)nc(OC3CCN(C)CC3)nc12` [Compound 105, (E)-4-(Dimethylamino)-1-(4-(2-(((8-isopropyl-2-((1-methylpiperidin-4-yl)oxy)pyrazolo[1,5-a][1,3,5]triazin-4-yl)amino)methyl)phenyl)piperazin-1-yl)but-2-en-1-one], the IC50 on CDK7 was below 100 nM; with A673 cells (setting [1]), below 500 nM.

With `C=CC(=O)N1CCC(CN2CCC(C(=O)Nc3ncc(SCc4ncc(C(C)(C)C)o4)s3)CC2)CC1` [Compound 120, 1-((1-Acryloylpiperidin-4-yl)methyl)-N-(5-(((5-(tert-butyl)oxazol-2-yl)methyl)thio)thiazol-2-yl)piperidine-4-carboxamide], the IC50 on CDK7 was above 1000 nM; in the assay with A673 cells (A673, 72 h) it was below 500 nM.

Regarding `C=CC(=O)Nc1cccc(C(C)N2CCC(C(=O)Nc3ncc(SCc4ncc(C(C)(C)C)o4)s3)CC2)c1` (centres unmarked) [Compound 121, 1-(1-(3-Acrylamidophenyl)ethyl)-N-(5-(((5-(tert-butyl)oxazol-2-yl)methyl)thio)thiazol-2-yl)piperidine-4-carboxamide], the IC50 at CDK7 is 100 to 1000 nM; in the assay on A673 cells (A673, 72 h), below 500 nM.

For the molecule `CN(C)C/C=C/C(=O)Nc1cccc(CN2CCC(C(=O)Nc3ncc(SCc4ncc(C(C)(C)C)o4)s3)CC2)c1` [Compound 127, (E)-N-(5-(((5-(tert-butyl)oxazol-2-yl)methyl)thio)thiazol-2-yl)-1-(3-(4-(dimethylamino)but-2-enamido)benzyl)piperidine-4-carboxamide], the results for the IC50 at CDK7 and with A673 cells (setting [1]) were 100 to 1000 nM and below 500 nM, respectively.

Regarding `C=CC(=O)Nc1ccc(C(=O)N2CCC(C(=O)Nc3ncc(SCc4ncc(C(C)(C)C)o4)s3)CC2)cc1` [Compound 122, 1-(4-Acrylamidobenzoyl)-N-(5-(((5-(tert-butyl)oxazol-2-yl)methyl)thio)thiazol-2-yl)piperidine-4-carboxamide], the IC50 in the assay with A673 cells (setting [1]) was below 500 nM.

Consider `CC(C)c1cnn2c(NC3CCN(C(=O)c4ccc(NC(=O)/C=C/CN(C)C)cc4)CC3)nc(OC3CCN(C)CC3)nc12` [Compound 102, (E)-4-(Dimethylamino)-N-(4-(4-((8-isopropyl-2-((1-methylpiperidin-4-yl)oxy)pyrazolo[1,5-a][1,3,5]triazin-4-yl)amino)piperidine-1-carbonyl)phenyl)but-2-enamide], for which the IC50 on CDK7 is above 1000 nM; in the assay on A673 cells (setting [1]), 500 to 5000 nM.

`C=CC(=O)N1CCC(C(=O)N2CCC(C(=O)Nc3ncc(SCc4ncc(C(C)(C)C)o4)s3)CC2)CC1` [Compound 123, 1-(1-Acryloylpiperidine-4-carbonyl)-N-(5-(((5-(tert-butyl)oxazol-2-yl)methyl)thio)thiazol-2-yl)piperidine-4-carboxamide]: the IC50 in the assay on A673 cells (setting [1]) was below 500 nM.

For `C=CC(=O)Nc1ccc(CN2CCC(C(=O)Nc3ncc(SCc4ncc(C(C)(C)C)o4)s3)CC2)cc1` [Compound 119, 1-(4-Acrylamidobenzyl)-N-(5-(((5-(tert-butyl)oxazol-2-yl)methyl)thio)thiazol-2-yl)piperidine-4-carboxamide], the IC50 at CDK7 is 100 to 1000 nM; with A673 cells (A673, 72 h), below 500 nM.

Consider `C=CC(=O)Nc1cccc(C(=O)N2CCC(C(=O)Nc3ncc(SCc4ncc(C(C)(C)C)o4)s3)CC2)c1` [Compound 117, 1-(3-Acrylamidobenzoyl)-N-(5-(((5-(tert-butyl)oxazol-2-yl)methyl)thio)thiazol-2-yl)piperidine-4-carboxamide], for which the half-maximal inhibitory concentration (IC50) in the assay on A673 cells (setting [1]) is below 500 nM.

As to `C=CC(=O)Nc1cccc(CN2CCC(C(=O)Nc3ncc(SCc4ncc(C(C)(C)C)o4)s3)CC2)c1` [Compound 118, 1-(3-Acrylamidobenzyl)-N-(5-(((5-(tert-butyl)oxazol-2-yl)methyl)thio)thiazol-2-yl)piperidine-4-carboxamide], the IC50 was 100 to 1000 nM at CDK7 and below 500 nM with A673 cells (A673, 72 h).

Turning to `CC(C)c1cnn2c(NCc3ccccc3NCc3ccc(NC(=O)/C=C/CN(C)C)cc3)nc(OC3CCN(C)CC3)nc12` [Compound 104, (E)-4-(dimethylamino)-N-(4-(((2-(((8-isopropyl-2-((1-methylpiperidin-4-yl)oxy)pyrazolo[1,5-a][1,3,5]triazin-4-yl)amino)methyl)phenyl)amino)methyl)phenyl)but-2-enamide], the results for the IC50 on CDK7 and with A673 cells (setting [1]) were below 100 nM and below 500 nM, respectively.

With `C=CC(=O)N1CCCC(CN2CCC(C(=O)Nc3ncc(SCc4ncc(C(C)(C)C)o4)s3)CC2)C1` (centres unmarked) [Compound 125, 1-((1-Acryloylpiperidin-3-yl)methyl)-N-(5-(((5-(tert-butyl)oxazol-2-yl)methyl)thio)thiazol-2-yl)piperidine-4-carboxamide], the IC50 at CDK7 is 100 to 1000 nM; in the assay with A673 cells (A673, 72 h) it was below 500 nM.
